One data set concerns the target Protein Wnt-3a (Mus musculus, UniProt P27467). The data set can be described thus: SAR analysis of small molecule antagonists of Gli-SUFU in a Wnt3a luminescent reporter assay. The data set is classed as functional. A general note: Reporter assays use an easily measured gene product as a stand-in for the process of interest.
Another data set addresses Albumin (Bos taurus, UniProt P02769). As to the kind of experiment: Counterscreen for inhibitors of T-cell receptor (TCR)-CD3 interaction: Fluorescence-based biochemical high throughput dose response assay to identify inhibitors of T-cell receptor (TCR)-CD3 interaction using a TAMRA-labeled BSA probe. The data set is classed as functional. Background: A counterscreen serves to expose hits that act by an unwanted route or on another target.

Data set [1] can be described thus: THP-1 cell cytotoxicity, dose response, cytotoxicity control for non-replicating M. tuberculosis project (AID 489025). The data set is classed as functional.
In another data set the target is Nonstructural protein 1 (Influenza A virus, UniProt Q194T2). The class given is functional, Influenza A virus (A/California/07/2009(H1N1)).
For data set [2], the target named is T1, Trace amine-associated receptor 1 (Homo sapiens, UniProt Q96RJ0).
T1 sequence (Q96RJ0 whole entry): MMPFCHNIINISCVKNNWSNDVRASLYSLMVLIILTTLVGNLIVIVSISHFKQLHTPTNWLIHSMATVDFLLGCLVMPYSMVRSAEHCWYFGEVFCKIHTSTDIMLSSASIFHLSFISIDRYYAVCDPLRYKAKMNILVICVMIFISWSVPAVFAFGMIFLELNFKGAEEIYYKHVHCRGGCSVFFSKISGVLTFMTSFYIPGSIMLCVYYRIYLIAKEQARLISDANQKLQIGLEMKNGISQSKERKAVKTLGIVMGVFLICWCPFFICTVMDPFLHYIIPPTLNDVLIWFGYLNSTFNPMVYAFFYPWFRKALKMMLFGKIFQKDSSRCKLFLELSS
The data set can be described thus: Fluorescence-based cell-based high throughput dose response assay to identify agonists of the human trace amine associated receptor 1 (TAAR1). The data set is classed as functional.

A short description of data set [3]: cells. The class given is functional, cell-based.
Data set [4] in a line: cells. The data set is classed as functional, cell-based. This is another data set of the same source.
For data set [5], the target named is T1, Trace amine-associated receptor 1. As to the kind of experiment: Counterscreen for agonists of the human trace amine associated receptor 1 (hTAAR1): Fluorescence-based cell-based high throughput dose response assay to identify hTAAR1 agonist that also desensitize TAAR1 receptor response. The class given is functional.
The target in a further data set is T2, Caspase-6 (Homo sapiens, UniProt P55212).
T2 sequence (P55212 whole entry): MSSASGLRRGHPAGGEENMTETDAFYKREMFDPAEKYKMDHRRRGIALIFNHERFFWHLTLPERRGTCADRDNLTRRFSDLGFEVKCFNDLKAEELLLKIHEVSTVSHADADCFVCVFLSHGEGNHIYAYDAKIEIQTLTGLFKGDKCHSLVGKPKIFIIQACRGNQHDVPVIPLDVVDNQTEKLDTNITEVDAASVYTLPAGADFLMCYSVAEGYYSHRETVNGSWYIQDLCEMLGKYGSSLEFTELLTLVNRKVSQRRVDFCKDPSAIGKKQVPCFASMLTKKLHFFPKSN
The data set can be described thus: inhibition of CASP6 peptide cleavage – biochemical, VEID-R110 fluorescence, cherry-pick, dose response (AID 720632).

Data set [6] addresses T3, Corticotropin-releasing factor receptor 2/Corticotropin-releasing factor-binding protein (Homo sapiens, UniProt P24387+Q13324).
T3 sequence (Q13324 whole entry): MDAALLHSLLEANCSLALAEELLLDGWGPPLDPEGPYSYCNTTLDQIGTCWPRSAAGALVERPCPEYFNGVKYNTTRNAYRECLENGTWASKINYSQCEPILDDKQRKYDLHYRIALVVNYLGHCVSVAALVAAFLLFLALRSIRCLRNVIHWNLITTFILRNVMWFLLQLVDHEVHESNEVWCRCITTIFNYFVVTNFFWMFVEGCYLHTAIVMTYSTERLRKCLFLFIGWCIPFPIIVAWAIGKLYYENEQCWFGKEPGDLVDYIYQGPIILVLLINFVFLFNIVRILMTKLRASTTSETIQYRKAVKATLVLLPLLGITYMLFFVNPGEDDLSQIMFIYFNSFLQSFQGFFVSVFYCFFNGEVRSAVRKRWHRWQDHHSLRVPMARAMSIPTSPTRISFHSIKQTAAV
T3 sequence (P24387 whole entry): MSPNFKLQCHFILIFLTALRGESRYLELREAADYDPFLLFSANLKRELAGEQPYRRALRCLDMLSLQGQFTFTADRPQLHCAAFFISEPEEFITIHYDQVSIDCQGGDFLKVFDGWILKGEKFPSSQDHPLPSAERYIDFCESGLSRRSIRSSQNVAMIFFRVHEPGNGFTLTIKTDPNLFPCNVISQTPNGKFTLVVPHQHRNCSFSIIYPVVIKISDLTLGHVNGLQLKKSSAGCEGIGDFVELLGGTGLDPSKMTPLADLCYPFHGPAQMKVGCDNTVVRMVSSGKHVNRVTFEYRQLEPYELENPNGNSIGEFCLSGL
The data set can be described thus: activators of CRF receptor 2 with binding protein – uHTS hits, confirmation (AID 602473). Conditions: read-out: EC50_Mean. The data set is classed as functional.

For another data set, the target named is T4, Protein RecA (Mycobacterium tuberculosis, UniProt P9WHJ3).
T4 sequence (P9WHJ3 whole entry): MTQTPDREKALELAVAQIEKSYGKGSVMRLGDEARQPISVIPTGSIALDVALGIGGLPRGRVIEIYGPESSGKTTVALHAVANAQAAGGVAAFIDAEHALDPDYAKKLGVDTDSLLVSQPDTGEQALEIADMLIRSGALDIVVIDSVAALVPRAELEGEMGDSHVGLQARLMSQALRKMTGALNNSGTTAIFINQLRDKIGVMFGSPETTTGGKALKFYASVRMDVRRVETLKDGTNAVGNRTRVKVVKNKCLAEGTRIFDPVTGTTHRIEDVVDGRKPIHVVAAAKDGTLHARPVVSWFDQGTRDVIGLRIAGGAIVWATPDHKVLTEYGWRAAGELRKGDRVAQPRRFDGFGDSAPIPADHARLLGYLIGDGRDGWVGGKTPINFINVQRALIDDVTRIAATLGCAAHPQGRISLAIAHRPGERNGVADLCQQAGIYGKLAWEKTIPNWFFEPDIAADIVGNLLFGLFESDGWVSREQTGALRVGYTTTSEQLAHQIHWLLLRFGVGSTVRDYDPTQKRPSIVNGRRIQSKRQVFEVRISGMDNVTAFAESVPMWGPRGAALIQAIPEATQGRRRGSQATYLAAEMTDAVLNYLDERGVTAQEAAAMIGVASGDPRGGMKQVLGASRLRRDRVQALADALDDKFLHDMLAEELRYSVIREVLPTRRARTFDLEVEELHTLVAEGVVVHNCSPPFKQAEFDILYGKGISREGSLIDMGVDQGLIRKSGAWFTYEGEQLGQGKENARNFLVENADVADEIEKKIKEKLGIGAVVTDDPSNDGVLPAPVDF
As to the kind of experiment: Fluorescence Cell-Free Homogeneous Dose Retest to Identify Inhibitors of RecA-Intein Splicing Activity. [Related pubchem assays (depositor defined):AID2097, AID2223, AID489010, AID492950]. The class given is functional.

Data set [7] addresses T5, Replicative DNA helicase DnaB (Mycobacterium tuberculosis, UniProt P9WMR3).
T5 sequence (P9WMR3 whole entry): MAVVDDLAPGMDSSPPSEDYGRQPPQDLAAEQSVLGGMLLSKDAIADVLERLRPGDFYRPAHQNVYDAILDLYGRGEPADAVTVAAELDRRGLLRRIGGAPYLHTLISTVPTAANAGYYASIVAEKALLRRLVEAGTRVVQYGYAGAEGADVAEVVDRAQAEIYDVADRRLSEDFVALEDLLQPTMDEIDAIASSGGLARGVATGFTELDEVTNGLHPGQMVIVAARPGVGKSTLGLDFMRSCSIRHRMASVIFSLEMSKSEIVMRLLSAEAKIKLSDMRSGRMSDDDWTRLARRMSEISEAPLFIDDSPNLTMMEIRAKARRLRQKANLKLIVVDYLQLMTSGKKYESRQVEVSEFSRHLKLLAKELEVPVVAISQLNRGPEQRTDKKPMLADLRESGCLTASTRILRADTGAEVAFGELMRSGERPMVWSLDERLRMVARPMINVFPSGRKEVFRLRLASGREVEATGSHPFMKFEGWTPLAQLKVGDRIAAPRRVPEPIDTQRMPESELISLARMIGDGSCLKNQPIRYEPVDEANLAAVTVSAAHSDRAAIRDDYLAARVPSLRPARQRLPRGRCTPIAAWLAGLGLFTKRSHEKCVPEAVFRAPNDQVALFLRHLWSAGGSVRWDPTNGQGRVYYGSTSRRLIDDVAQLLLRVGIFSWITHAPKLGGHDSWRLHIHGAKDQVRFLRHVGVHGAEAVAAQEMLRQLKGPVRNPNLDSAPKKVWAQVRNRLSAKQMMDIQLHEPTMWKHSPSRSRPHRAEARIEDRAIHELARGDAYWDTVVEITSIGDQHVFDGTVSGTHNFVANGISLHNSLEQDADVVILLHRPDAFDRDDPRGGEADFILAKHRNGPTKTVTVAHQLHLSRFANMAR
As to the kind of experiment: DnaB intein splicing inhibitors, dose response, biochemical, cell-free fluorescence (AID 449749). The data set is classed as functional.

Data set [8] is described as follows: viability loss in HeLa cells – cytotoxicity control for MgcRacGAP inhibitor project, dose response (AID 624300). The data set is classed as functional.
Data set [9] concerns the target T6, Rac GTPase-activating protein 1 (Homo sapiens, UniProt Q9H0H5).
T6 sequence (Q9H0H5 whole entry): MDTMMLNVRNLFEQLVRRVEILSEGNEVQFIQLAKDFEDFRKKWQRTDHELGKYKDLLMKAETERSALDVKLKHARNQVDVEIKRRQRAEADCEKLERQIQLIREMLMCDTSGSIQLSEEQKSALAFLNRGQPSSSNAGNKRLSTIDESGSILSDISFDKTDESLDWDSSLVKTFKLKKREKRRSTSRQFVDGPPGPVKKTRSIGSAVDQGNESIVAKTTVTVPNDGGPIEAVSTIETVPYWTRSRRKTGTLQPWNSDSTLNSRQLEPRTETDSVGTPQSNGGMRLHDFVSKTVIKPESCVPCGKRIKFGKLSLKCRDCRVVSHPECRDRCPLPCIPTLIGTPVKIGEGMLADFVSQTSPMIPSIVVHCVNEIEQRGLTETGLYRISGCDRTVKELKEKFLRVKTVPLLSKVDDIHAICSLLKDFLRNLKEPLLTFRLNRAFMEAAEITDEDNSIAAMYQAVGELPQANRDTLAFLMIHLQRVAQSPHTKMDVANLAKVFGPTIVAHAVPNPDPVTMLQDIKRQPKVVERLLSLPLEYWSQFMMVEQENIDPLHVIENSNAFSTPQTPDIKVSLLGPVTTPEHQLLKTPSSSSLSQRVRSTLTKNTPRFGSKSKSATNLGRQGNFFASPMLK
As to the kind of experiment: blockers of MgcRacGAP-driven Rac1 GTP hydrolysis – biochemical, ADP Hunter fluorescence, primary and confirmatory, confirmation (AID 624330). The class given is functional.

Another data set addresses Large T antigen (Simian virus 40, UniProt P03070). The class given is functional, Betapolyomavirus macacae.
The next data set deals with Cytochrome P450 2C9 (Homo sapiens, UniProt P11712).
A short description of data set [10]: NIH3T3 cell viability loss – ATP luminescence, mouse fibroblasts, counter-screen, dose response (AID 2010).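 Note: cells exposed to compound for about 90 hours before reading.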 The class given is functional, cell-based.
Data set [11] in a line: Trypanosoma cruzi growth suppression in host cells – NIH3T3 host cells, beta-gal luminescence, confirmation (AID 2044).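 Note: intracellular parasites grown in NIH/3T3 mouse fibroblasts as host cells; luminescent beta-galactosidase reporter signal from transgenic T. cruzi replicating inside host cells; inhibitors lower the luminescence signal.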 The class given is functional, cell-based.

Calls of active or inactive are those of the source.

Protein Wnt-3a, sequence (P27467 whole entry): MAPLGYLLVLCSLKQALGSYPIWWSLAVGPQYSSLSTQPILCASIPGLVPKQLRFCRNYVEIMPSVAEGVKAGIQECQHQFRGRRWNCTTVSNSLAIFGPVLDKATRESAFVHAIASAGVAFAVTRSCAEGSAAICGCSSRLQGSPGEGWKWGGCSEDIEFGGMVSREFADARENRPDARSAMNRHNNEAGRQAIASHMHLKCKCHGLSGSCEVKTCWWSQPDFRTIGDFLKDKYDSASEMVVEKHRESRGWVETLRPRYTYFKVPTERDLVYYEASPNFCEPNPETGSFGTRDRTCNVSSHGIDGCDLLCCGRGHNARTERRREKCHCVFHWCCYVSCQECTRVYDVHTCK
Albumin, sequence (P02769 whole entry): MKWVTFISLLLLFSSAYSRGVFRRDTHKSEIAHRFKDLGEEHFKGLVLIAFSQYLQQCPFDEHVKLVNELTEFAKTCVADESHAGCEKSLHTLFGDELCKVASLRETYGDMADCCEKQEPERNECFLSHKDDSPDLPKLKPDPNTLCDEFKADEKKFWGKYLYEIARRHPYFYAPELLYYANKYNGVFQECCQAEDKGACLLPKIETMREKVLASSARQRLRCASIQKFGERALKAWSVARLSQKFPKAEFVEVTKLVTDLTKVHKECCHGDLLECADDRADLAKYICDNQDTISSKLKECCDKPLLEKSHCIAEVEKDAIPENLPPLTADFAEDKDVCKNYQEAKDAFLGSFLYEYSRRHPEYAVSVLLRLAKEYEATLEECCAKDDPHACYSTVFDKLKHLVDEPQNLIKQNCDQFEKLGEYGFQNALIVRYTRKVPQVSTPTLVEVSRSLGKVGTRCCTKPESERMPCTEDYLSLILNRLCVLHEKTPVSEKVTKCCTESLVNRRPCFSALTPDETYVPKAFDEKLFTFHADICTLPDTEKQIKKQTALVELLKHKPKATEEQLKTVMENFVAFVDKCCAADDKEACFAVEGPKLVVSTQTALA
Cytochrome P450 2C9, sequence (P11712 whole entry): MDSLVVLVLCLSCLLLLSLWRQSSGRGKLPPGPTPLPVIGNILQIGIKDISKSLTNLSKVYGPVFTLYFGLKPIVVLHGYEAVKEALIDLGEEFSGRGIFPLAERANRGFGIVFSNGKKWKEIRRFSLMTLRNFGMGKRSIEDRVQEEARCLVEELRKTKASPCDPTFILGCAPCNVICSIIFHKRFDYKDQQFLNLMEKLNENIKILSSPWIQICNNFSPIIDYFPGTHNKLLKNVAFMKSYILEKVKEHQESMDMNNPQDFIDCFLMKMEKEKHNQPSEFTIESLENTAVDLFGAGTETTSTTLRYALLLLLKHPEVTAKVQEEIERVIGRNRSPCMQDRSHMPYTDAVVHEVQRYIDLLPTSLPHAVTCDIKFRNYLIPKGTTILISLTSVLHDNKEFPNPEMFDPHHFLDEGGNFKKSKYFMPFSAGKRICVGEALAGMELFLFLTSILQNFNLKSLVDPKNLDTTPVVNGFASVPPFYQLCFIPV
Large T antigen, sequence (P03070 whole entry): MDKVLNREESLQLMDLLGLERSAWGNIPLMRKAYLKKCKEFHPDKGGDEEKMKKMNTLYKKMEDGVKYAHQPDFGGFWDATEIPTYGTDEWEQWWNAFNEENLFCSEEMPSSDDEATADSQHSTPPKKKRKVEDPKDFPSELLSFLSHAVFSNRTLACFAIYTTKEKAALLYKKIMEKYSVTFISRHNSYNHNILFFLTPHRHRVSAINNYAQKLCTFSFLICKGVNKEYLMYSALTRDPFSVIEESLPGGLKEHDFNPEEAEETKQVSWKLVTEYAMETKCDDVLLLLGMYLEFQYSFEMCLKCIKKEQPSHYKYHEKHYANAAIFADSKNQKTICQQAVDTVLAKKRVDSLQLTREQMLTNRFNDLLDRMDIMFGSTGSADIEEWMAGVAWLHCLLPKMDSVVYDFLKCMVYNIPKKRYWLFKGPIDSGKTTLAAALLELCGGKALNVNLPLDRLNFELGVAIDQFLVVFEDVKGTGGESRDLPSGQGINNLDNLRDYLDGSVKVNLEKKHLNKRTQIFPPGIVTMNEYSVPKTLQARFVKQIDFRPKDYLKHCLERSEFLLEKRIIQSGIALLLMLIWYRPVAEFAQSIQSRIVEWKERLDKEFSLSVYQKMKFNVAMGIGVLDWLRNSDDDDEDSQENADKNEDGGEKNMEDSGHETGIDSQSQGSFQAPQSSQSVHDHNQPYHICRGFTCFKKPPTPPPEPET
Nonstructural protein 1, sequence (Q194T2 whole entry): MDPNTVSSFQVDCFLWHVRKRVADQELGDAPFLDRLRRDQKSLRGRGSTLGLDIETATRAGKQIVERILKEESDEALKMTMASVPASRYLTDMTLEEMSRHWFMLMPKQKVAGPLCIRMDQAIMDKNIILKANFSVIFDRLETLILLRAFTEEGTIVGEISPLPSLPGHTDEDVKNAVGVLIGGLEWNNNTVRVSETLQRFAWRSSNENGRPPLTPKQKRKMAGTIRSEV

One may read the IC50 as the concentration needed to halve the response being measured. As for `O=C(Nc1cc(N2CCOCC2)ncn1)c1ccccc1`, at Protein Wnt-3a, the IC50 was > 21.8 µM (inactive).

The CC50 is the concentration giving 50% cytotoxicity. As for `O=C(N/N=C/c1cccc([N+](=O)[O-])c1O)c1cccs1`, the IC50 at Albumin is > 94.1 µM (inactive); at Nonstructural protein 1, 7.41 µM (active). Moreover, the 50% cytotoxic concentration (CC50) in data set [1] was 32.4 µM (active).

In the case of `COc1cc(CN2CCc3ccccc3C2)cc([N+](=O)[O-])c1O`, the EC50 in data set [2] is 1.01 µM (active); in “cells [3]” it was > 29.9 µM (inactive). Moreover, the IC50 in the data set “cells [4]” was > 29.9 µM (inactive); in [5], 6.77 µM (active).

The AC50 is the concentration at which the activity in the assay is half-maximal. For `O=C([C-](C1=[N+](Cc2ccc(Cl)nc2)CCN1Cc1ccc(Cl)nc1)[N+](=O)[O-])C(Cl)Cl`, the values for the AC50 (at Caspase-6; in data set [7]) were 8.77 µM (active) and 2.03 µM (active), respectively. In addition, the EC50 in [6] is > 53 µM (inactive); at Protein RecA, 3.48 µM (active).

In the case of `CCOc1ccc(/C=N/CC(O)c2ccccc2)cc1` (stereo not given), the EC50 in data set [2] is 0.769 µM (active); in the data set “cells [3]”, > 29.9 µM (inactive). Besides, the values for the IC50 (in the data set “cells [4]”; in data set [5]) were > 29.9 µM (inactive) and 3.27 µM (active), respectively.

With `O=C(Nc1cc(N2CCSCC2)ncn1)c1ccccc1`, the IC50 at Protein Wnt-3a is > 21.8 µM (inactive).

For the molecule `COc1cc(/C=C2\SC(=N)NC2=O)ccc1O`, the CC50 in [8] was 69.1 µM (active). Also, the IC50 in [9] is 11.8 µM (active); on Large T antigen it was 5.02 µM (active).

For `COC(=O)Nc1ccc(S(=O)(=O)NNC(=O)c2c(O)c3ccccc3[nH]c2=O)cc1`, the IC50 on Albumin was > 94.1 µM (inactive).

`COc1ccc(C(=O)NNC(=O)CSc2nnc(COc3ccc4ccccc4c3)n2C)cc1`: the EC50 (in [2]; in the data set “cells [3]”) was > 29.9 µM (inactive) throughout. Moreover, the AC50 entry at Cytochrome P450 2C9 is reported as “inconclusive”. The IC50 (in the data set “cells [4]”; in [5]) was > 29.9 µM (inactive) in each case.

Regarding `CC1CCN(S(=O)(=O)c2ccc(NC(=O)Cn3nnc(-c4ccccc4F)n3)cc2)CC1`, on Albumin, the IC50 was > 94.1 µM (inactive). Besides, the EC50 was > 60 µM (not active) in data set [10] and 2.23 µM (active) in [11].

As for `Cc1nc(NC(=O)c2ccccc2)cc(N2CCCCC2)n1`, the IC50 at Protein Wnt-3a is > 21.8 µM (inactive).

The record behind these values is ChEMBL document CHEMBL1201862, “PubChem BioAssay data set” (2004).
